Source: patent publication US20080227748A1, “Medicament Made From Laminarine or Oligolaminarines For Treatment of Septicemia and Septic Shock” (LABORATOIRES GOEMAR, priority 2005, published 2008)

Assay: Feeding treatment with Dectinan-enriched diet before injection of LPS (weight, consumption, glycemia, triglyceridemia, feces)
Design: species or system male Wistar Han rats
Details: rat, in vivo
Experimental: The animals selected for the abovesaid studies were male Wistar Han rats (Harlem, Netherlands).
The experiments were carried out on two groups of eight rats each.
The rats of one of the two groups—“control group”—had available to them “ad libitum” a standard feed with the AO4 trade name (UAR, France); the rats of the other group had available to them the same feed but supplemented with the above said laminarin, sold under the “Dectinan” trade name; in a first phase and for four days (−4 to −1), the feed was enriched with 5% by weight of Dectinan and then with 10% by weight in a second phase of 21 days (days 0 to 21); this second group of rats is denoted by “Dectinan group”.
The days on which the various withdrawals and measurements are made are identified in table I below.
a) Before injection of LPS • bodyweight • weight of wet feces and feces after freeze drying (collected over 24 h) • weight of the diet and of the drinking water • taking of blood from the caudal vein: quantitative determination of triglycerides and glucose
In this regard, the values mentioned later represent the mean ±SDM (Standard Deviation of the Mean). […]

Total consumption of drinking water: 611.5 ± 17.9 mL
Total consumption of feed: 431.5 ± 6.0 g
Substance: laminarin [Dectinan®]
